PubChem BioAssay AID330 (DTP/NCI, 2004)
“And” between values parts separate entries of the source, which are not always exact repeats. Identical values can stand only once. Inconclusive results and toxic doses are left out. The calls were made as follows: active = survival T/C of 150% or more; inactive = T/C below 125% in these data. Peptide text beside a SMILES is read from it. * marks the point of attachment. Cbz = O=C(OCc1ccccc1)*; OtBu = CC(C)(C)O*

System: P388 leukemia ip, CD2F1 mice, survival T/C
Assay: NCI In Vivo Anticancer Drug Screen. Data for tumor model P388 Leukemia (intraperitoneal) in CD2F1 (CDF1) mice
Details: endpoint: median survival time, higher = longer survival
Experimental: The antitumor activity of compounds was measured in mice bearing transplantable tumors. Survival or tumor size were measured and the results are expressed as the measurement made in the treated group (T) divided by the measurement made in the vehicle treated control group (C). The tumor model used in this assay is P388 Leukemia (intraperitoneal) in CD2F1 (CDF1) mice

[1] = dose: 60.0 mg/kg/injection, schedule: Q01DX005 (ip), vehicle: saline with Tween-80
[2] = dose: 120.0 mg/kg/injection, schedule: Q01DX005 (ip), vehicle: saline with Tween-80
[3] = dose: 240.0 mg/kg/injection, schedule: Q01DX005 (ip), vehicle: saline with Tween-80
[4] = dose: 50.0 mg/kg/injection, schedule: Q01DX005 (ip), vehicle: Klucel (hydroxypropylcellulose) (HPC)
[5] = dose: 100.0 mg/kg/injection, schedule: Q01DX005 (ip), vehicle: Klucel (hydroxypropylcellulose) (HPC)
[6] = dose: 6.25 mg/kg/injection, schedule: Q01DX009 (ip), vehicle: saline with Tween-80
[7] = dose: 12.5 mg/kg/injection, schedule: Q01DX009 (ip), vehicle: saline with Tween-80
[8] = dose: 50.0 mg/kg/injection, schedule: Q01DX005 (ip), vehicle: saline with Tween-80
[9] = dose: 100.0 mg/kg/injection, schedule: Q01DX005 (ip), vehicle: saline with Tween-80
[10] = dose: 200.0 mg/kg/injection, schedule: Q01DX005 (ip), vehicle: saline with Tween-80
[11] = dose: 50.0 mg/kg/injection, schedule: Q01DX009 (ip), vehicle: saline
[12] = dose: 100.0 mg/kg/injection, schedule: Q01DX009 (ip), vehicle: saline
[13] = dose: 200.0 mg/kg/injection, schedule: Q01DX009 (ip), vehicle: saline
[14] = dose: 50.0 mg/kg/injection, schedule: Q01DX009 (ip), vehicle: Klucel (hydroxypropylcellulose) (HPC)
[15] = dose: 100.0 mg/kg/injection, schedule: Q01DX009 (ip), vehicle: Klucel (hydroxypropylcellulose) (HPC)
[16] = dose: 200.0 mg/kg/injection, schedule: Q01DX009 (ip), vehicle: Klucel (hydroxypropylcellulose) (HPC)
[17] = dose: 200.0 mg/kg/injection, schedule: Q01DX005 (ip), vehicle: Klucel (hydroxypropylcellulose) (HPC)
[18] = dose: 1.56 mg/kg/injection, schedule: Q01DX005 (ip), vehicle: saline with Tween-80

Measured: T/C

CCCCC(CC1CCCCC1)C(=O)O (stereo unspecified)
inactive: dose: 50.0 mg/kg/injection, schedule: Q01DX001 (ip), vehicle: saline with Tween-80 113 % of control | dose: 100.0 mg/kg/injection, schedule: Q01DX001 (ip), vehicle: saline with Tween-80 109 % of control | dose: 200.0 mg/kg/injection, schedule: Q01DX001 (ip), vehicle: saline with Tween-80 109 % of control

COc1ccccc1NC(=O)CC(=O)N1N=C(N(c2ccccc2)c2ccccc2)CC1c1ccccc1 (stereo unspecified)
inactive: [1] 108 % of control | [2] 107 % of control | [3] 96 % of control

C=CC(=O)OCCN(CCCC)CCCC
inactive: dose: 50.0 mg/kg/injection, schedule: Q01DX005 (ip), vehicle: saline 103 % of control | dose: 100.0 mg/kg/injection, schedule: Q01DX005 (ip), vehicle: saline 95 % of control | dose: 200.0 mg/kg/injection, schedule: Q01DX005 (ip), vehicle: saline 97 % of control

C[C@H](CS)C(=O)N1c2ccccc2C[C@H]1C(=O)O
inactive: [1] 101 % of control | [2] 104 % of control | [3] 113 % of control

COC1OC(COS(=O)(=O)c2ccc(C)cc2)C2OC(C)(C)OC12 (stereo unspecified)
inactive: [4] 95 % of control | [5] 100 % of control

CC1(C)C(/C=C\c2ccc(O)cc2)=Nc2ccccc21
inactive: dose: 3.12 mg/kg/injection, schedule: Q01DX009 (ip), vehicle: saline with Tween-80 105 % of control | [6] 100 % of control | [7] 108 % of control

Cc1ccc(C(O)(c2ccc(C)cc2)C(C)(C)O)cc1
inactive: [1] 98 % of control | [2] 100 % of control | [3] 103 % of control

CC(C)(C)C1=CC(N2CCOCC2)(C(C)(C)C)C=C(C(C)(C)C)C1=O
inactive: [8] 94 % of control | [9] 103 % of control | [10] 94 % of control

CCOC(=O)C(Cc1ccc(O)c(C#N)c1)NC(C)=O (stereo unspecified)
inactive: [8] 97 % of control | [9] 97 % of control | [10] 95 % of control

CN(C)C1CS(=O)(=O)OC2=C1CCc1sccc12 (stereo unspecified)
inactive: dose: 60.0 mg/kg/injection, schedule: Q01DX005 (ip), vehicle: Klucel (hydroxypropylcellulose) (HPC) 102 % of control | dose: 120.0 mg/kg/injection, schedule: Q01DX005 (ip), vehicle: Klucel (hydroxypropylcellulose) (HPC) 100 % of control | dose: 240.0 mg/kg/injection, schedule: Q01DX005 (ip), vehicle: Klucel (hydroxypropylcellulose) (HPC) 97 % of control

Cc1ccc([N+](=O)[O-])cc1NC(=O)Oc1ccccc1
inactive: dose: 100.0 mg/kg/injection, schedule: Q01DX009 (ip), vehicle: other 90 % of control | dose: 200.0 mg/kg/injection, schedule: Q01DX009 (ip), vehicle: other 110 % of control | dose: 400.0 mg/kg/injection, schedule: Q01DX009 (ip), vehicle: other 100 % of control

NCCSCCN
inactive: [11] 100 % of control | [12] 99 % of control | dose: 100.0 mg/kg/injection, schedule: Q03DX003 (ip), vehicle: saline 102 % of control | [13] 105 % of control | dose: 200.0 mg/kg/injection, schedule: Q03DX003 (ip), vehicle: saline 105 % of control | dose: 400.0 mg/kg/injection, schedule: Q03DX003 (ip), vehicle: saline 92 % of control

Clc1nnc(C(Cl)Cl)o1
inactive: [14] 114 % of control | [15] 106 % of control | [16] 99 % of control

CC(O)CN1C=NC(C)C1 (stereo unspecified)
inactive: [11] 95 % of control | [12] 100 % of control | [13] 103 % of control

Cn1nnc(-c2cccc(F)c2)n1
inactive: dose: 25.0 mg/kg/injection, schedule: Q01DX005 (ip), vehicle: Klucel (hydroxypropylcellulose) (HPC) 105 % of control | [4] 91 % of control and 96 % of control | [5] 93 % of control | [17] 91 % of control

C=C1CC2(CC3CC(C2C)C3(C)C)OC1=O (stereo unspecified)
inactive: dose: 25.0 mg/kg/injection, schedule: Q04DX002 (ip), vehicle: saline 102 % of control | dose: 50.0 mg/kg/injection, schedule: Q04DX002 (ip), vehicle: saline 100 % of control | dose: 100.0 mg/kg/injection, schedule: Q04DX002 (ip), vehicle: saline 100 % of control and 90 % of control | dose: 400.0 mg/kg/injection, schedule: Q04DX002 (ip), vehicle: saline 100 % of control

Cc1ccnc(NC(N)=O)n1
inactive: dose: 50.0 mg/kg/injection, schedule: Q01DX009 (ip), vehicle: saline with Tween-80 103 % of control | dose: 100.0 mg/kg/injection, schedule: Q01DX009 (ip), vehicle: saline with Tween-80 103 % of control | dose: 200.0 mg/kg/injection, schedule: Q01DX009 (ip), vehicle: saline with Tween-80 101 % of control

N#CC(Br)C(N)=O (stereo unspecified)
inactive: dose: 1.25 mg/kg/injection, schedule: Q01DX009 (ip), vehicle: saline with Tween-80 104 % of control | dose: 2.5 mg/kg/injection, schedule: Q01DX009 (ip), vehicle: saline with Tween-80 124 % of control | dose: 5.0 mg/kg/injection, schedule: Q01DX009 (ip), vehicle: saline with Tween-80 119 % of control

CS/C(=C/c1ccc2ccccc2[n+]1C)N1CCCCC1
inactive: dose: 0.78 mg/kg/injection, schedule: Q01DX005 (ip), vehicle: saline with Tween-80 109 % of control | [18] 116 % of control

C1=C(c2ccccc2)OC(c2ccccc2)=C[P+]1(c1ccccc1)c1ccccc1
inactive: [18] 105 % of control | dose: 3.12 mg/kg/injection, schedule: Q01DX005 (ip), vehicle: saline with Tween-80 120 % of control | dose: 6.25 mg/kg/injection, schedule: Q01DX005 (ip), vehicle: saline with Tween-80 97 % of control

C=CC[N+](CCO)(CCO)CCCCCCCCCCCCCCCCCC
inactive: [6] 114 % of control | [7] 108 % of control

Cc1ccc(N=Nc2c(O)ccc3n[nH]nc23)cc1
inactive: [14] 99 % of control | [15] 101 % of control and 105 % of control | dose: 100.0 mg/kg/injection, schedule: Q04DX003 (ip), vehicle: Klucel (hydroxypropylcellulose) (HPC) 100 % of control | [16] 99 % of control and 109 % of control | dose: 200.0 mg/kg/injection, schedule: Q04DX003 (ip), vehicle: Klucel (hydroxypropylcellulose) (HPC) 100 % of control | dose: 400.0 mg/kg/injection, schedule: Q01DX009 (ip), vehicle: Klucel (hydroxypropylcellulose) (HPC) 100 % of control and 109 % of control | dose: 400.0 mg/kg/injection, schedule: Q04DX003 (ip), vehicle: Klucel (hydroxypropylcellulose) (HPC) 93 % of control

CCOC(=O)C(Cc1ccc(N(CCCl)CCCl)cc1)NC(=O)C(Cc1ccc([N+](=O)[O-])cc1)NC(C)=O (stereo unspecified)
inactive: dose: 5.0 mg/kg/injection, schedule: Q04DX003 (ip), vehicle: water 91 % of control | dose: 10.0 mg/kg/injection, schedule: Q04DX003 (ip), vehicle: water 91 % of control | dose: 20.0 mg/kg/injection, schedule: Q04DX003 (ip), vehicle: water 90 % of control | dose: 40.0 mg/kg/injection, schedule: Q04DX003 (ip), vehicle: other 88 % of control | dose: 40.0 mg/kg/injection, schedule: Q04DX003 (ip), vehicle: water 98 % of control | dose: 80.0 mg/kg/injection, schedule: Q04DX003 (ip), vehicle: other 91 % of control | dose: 100.0 mg/kg/injection, schedule: Q04DX003 (ip), vehicle: other 90 % of control | dose: 160.0 mg/kg/injection, schedule: Q04DX003 (ip), vehicle: other 94 % of control | dose: 200.0 mg/kg/injection, schedule: Q04DX003 (ip), vehicle: other 102 % of control | dose: 400.0 mg/kg/injection, schedule: Q04DX003 (ip), vehicle: other 112 % of control

O=C(C(Cl)Cl)N1CCN(C(=O)C(Cl)Cl)CC1
inactive: [4] 102 % of control | [5] 110 % of control | [17] 105 % of control

CC(C)(C)OC(=O)CCC(NC(=O)C(CCC(=O)OC(C)(C)C)NC(=O)C(CCC(=O)OC(C)(C)C)NC(=O)OCc1ccccc1)C(=O)O (stereo unspecified) (Cbz-Glu(OtBu)-Glu(OtBu)-Glu(OtBu)-OH; configuration not given here)
inactive: [8] 104 % of control | [9] 100 % of control | [10] 96 % of control

CN(C)CCn1ncc(Sc2cc([N+](=O)[O-])ccc2N)c(Cl)c1=O
inactive: [1] 103 % of control | [2] 96 % of control | [3] 97 % of control
